How the values were obtained:
Histone deacetylase 4 = Histone deacetylase 4 (Homo sapiens, UniProt P56524); test: Inhibition of human HDAC4
[1] = Half life in human liver microsomes at 1 uM preincubated for 10 mins followed by NADPH addition measured up to 60 mins by LC-MS/MS analysis; assay type: ADME, microsome
Mus musculus [2] = test: In vivo inhibition of PDE5 in mouse assessed as increase in pCREB-Ser133 level in hippocampus at 40 mg/kg, ip measured after 1 hr by Western blot analysis; assay type: functional; parameters: scale not given: the % may be the effect or the level left
[3] = biological target: Protein deacetylase HDAC6 (Mus musculus) (UniProt Q9Z2V5); test: Inhibition of HDAC6 in Tg2576 mouse primary neurons assessed as reduction in human APP protein level at 100 nM treated for 2 days measured at 24 hrs post last dose by Western blot analysis relative to control
Chain of Protein deacetylase HDAC6 (Mus musculus) (Q9Z2V5 whole entry): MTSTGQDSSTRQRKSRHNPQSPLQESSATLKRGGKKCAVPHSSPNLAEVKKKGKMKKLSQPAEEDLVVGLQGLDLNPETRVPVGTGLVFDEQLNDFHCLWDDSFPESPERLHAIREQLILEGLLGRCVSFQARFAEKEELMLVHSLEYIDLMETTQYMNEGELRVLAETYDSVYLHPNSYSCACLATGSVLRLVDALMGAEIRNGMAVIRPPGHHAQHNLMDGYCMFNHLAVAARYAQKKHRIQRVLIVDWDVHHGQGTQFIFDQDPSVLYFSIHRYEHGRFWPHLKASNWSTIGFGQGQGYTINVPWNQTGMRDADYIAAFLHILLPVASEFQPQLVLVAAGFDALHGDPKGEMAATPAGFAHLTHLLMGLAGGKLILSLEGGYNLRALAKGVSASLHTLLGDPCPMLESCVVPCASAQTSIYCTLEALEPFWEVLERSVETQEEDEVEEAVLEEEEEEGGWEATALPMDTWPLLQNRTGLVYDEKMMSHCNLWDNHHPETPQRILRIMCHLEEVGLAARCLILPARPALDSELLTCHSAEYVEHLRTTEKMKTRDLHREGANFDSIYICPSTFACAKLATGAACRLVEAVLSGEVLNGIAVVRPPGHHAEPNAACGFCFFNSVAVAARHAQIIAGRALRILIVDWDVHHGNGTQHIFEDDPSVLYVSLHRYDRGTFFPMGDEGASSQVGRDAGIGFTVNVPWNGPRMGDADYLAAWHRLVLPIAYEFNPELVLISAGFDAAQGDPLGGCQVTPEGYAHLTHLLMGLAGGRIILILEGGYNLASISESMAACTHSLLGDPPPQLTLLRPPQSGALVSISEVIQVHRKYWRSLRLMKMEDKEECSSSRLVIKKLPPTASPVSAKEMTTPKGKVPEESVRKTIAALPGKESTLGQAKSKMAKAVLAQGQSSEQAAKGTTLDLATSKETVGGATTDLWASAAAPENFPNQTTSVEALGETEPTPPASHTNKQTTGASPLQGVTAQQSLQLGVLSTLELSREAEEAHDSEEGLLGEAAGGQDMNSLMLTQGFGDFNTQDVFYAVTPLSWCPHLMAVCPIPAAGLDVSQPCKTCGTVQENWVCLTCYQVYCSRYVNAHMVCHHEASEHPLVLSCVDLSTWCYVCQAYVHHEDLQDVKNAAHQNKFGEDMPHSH

Histone deacetylase 1 [4] = biological target: T1, Histone deacetylase 1 (Homo sapiens, UniProt Q13547); test: Inhibition of full length human recombinant C-terminal FLAG/His-tagged HDAC1 expressed in baculovirus infected sf9 cells assessed residence time preincubated fopr 2 hrs followed by dilution and subsequent fluorogenic HDAC substrate 3 addition measured at 2 mins time interval by fluorescence based jump dilution assay
T1 sequence (Q13547 whole entry): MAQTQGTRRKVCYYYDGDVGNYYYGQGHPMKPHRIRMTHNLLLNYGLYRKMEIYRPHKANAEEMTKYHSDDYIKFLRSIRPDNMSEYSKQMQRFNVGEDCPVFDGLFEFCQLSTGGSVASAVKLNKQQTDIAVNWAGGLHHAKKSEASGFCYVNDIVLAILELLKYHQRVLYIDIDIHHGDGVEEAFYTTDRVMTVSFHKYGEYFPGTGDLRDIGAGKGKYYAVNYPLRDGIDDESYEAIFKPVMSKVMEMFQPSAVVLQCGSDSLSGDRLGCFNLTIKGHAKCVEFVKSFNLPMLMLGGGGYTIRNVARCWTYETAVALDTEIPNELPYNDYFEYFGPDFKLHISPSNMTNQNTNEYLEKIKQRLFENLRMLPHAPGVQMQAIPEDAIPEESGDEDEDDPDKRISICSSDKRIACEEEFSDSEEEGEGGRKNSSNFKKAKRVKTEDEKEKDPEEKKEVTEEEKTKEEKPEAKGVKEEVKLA

cells [5] = conditions: Homo sapiens, SH-SY5Y, 2 h, read-out: FC
[6] = biological target: cGMP-specific 3',5'-cyclic phosphodiesterase (Homo sapiens, UniProt O76074); test: Inhibition of full length human recombinant N-terminal GST-tagged PDE5A1 expressed in baculovirus infected sf9 cells using cGMP as substrate after 30 mins by fluorescence assay
[7] = biological target: High affinity cGMP-specific 3',5'-cyclic phosphodiesterase 9A (Homo sapiens, UniProt O76083); test: Inhibition of full length human recombinant N-terminal GST-tagged PDE9A2 expressed in baculovirus infected sf9 cells using cGMP as substrate after 30 mins by fluorescence assay
Chain of High affinity cGMP-specific 3',5'-cyclic phosphodiesterase 9A (O76083 whole entry): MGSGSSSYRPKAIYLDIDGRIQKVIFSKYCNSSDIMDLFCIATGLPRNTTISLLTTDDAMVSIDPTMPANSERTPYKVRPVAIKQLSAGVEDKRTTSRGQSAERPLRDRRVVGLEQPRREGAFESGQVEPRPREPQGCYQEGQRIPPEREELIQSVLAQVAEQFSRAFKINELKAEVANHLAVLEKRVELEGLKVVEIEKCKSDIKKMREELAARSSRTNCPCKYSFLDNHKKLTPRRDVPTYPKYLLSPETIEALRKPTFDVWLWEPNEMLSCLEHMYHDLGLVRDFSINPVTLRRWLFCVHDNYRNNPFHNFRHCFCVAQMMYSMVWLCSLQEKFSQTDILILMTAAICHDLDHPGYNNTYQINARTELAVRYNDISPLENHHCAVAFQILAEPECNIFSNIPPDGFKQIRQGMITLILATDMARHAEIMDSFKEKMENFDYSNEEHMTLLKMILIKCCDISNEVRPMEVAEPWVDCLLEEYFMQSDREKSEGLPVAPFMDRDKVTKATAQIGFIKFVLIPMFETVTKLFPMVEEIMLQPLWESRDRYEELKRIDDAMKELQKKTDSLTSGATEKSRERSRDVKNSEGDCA

Histone deacetylase 5 = Histone deacetylase 5 (Homo sapiens, UniProt Q9UQL6); test: Inhibition of human HDAC5
Histone deacetylase 8 = Histone deacetylase 8 (Homo sapiens, UniProt Q9BY41); test: Inhibition of human HDAC8
Chain of Histone deacetylase 8 (Q9BY41 whole entry): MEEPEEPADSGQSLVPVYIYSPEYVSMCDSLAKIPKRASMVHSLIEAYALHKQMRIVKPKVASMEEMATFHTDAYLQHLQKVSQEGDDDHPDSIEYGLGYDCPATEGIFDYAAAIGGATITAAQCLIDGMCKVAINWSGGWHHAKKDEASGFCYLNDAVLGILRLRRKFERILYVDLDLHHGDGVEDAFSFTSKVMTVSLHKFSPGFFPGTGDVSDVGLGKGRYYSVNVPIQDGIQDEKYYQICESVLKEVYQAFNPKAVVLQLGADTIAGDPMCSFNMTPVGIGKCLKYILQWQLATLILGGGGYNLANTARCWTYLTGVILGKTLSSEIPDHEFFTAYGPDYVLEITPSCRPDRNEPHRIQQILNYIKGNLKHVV

CYP2C9 = CYP2C9 (Homo sapiens, UniProt P11712); test: Inhibition of CYP2C9 in human liver microsomes at 10 uM after 10 mins in presence of NADPH by LC-MS/MS analysis relative to control; assay type: ADME
cells [8] = conditions: Homo sapiens, SH-SY5Y, 2 h, read-out: FC; remark: listed apart in the source
[9] = biological target: Protein deacetylase HDAC6 (Mus musculus) (UniProt Q9Z2V5); test: Inhibition of HDAC6 in Tg2576 mouse primary neurons assessed as reduction in phosphorylated tau protein level at 100 nM treated for 2 days measured at 24 hrs post last dose by Western blot analysis relative to control
[10] = Inhibition of class-1 HDAC in human SH-SY5Y cells assessed as induction of AcH3K9 level at 160 nM after 2 hrs by AlphaLISA assay; assay type: cell-based; conditions: 0.16 µM
[11] = biological target: cGMP-inhibited 3',5'-cyclic phosphodiesterase 3A (Homo sapiens, UniProt Q14432); test: Inhibition of PDE3A (unknown origin) using FAM-cGMP as substrate by fluorescence assay
CYP2D6 = CYP2D6 (Homo sapiens, UniProt P10635); test: Inhibition of CYP2D6 in human liver microsomes at 10 uM after 10 mins in presence of NADPH by LC-MS/MS analysis relative to control; assay type: ADME
Chain of CYP2D6 (P10635 whole entry): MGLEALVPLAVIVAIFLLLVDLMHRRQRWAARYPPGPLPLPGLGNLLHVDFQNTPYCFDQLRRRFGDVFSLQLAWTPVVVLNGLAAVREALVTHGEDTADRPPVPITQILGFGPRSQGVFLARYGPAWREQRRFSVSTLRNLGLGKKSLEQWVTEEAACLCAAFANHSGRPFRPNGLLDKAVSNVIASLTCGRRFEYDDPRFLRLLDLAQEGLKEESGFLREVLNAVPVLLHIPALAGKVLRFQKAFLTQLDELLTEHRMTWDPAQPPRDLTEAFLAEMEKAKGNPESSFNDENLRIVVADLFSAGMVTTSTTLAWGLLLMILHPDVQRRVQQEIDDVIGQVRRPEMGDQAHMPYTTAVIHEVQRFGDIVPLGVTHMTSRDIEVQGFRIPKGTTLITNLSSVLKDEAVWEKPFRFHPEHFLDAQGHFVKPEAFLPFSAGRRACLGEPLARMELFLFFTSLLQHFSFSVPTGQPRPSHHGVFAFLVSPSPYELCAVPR

CYP2C19 = CYP2C19 (Homo sapiens, UniProt P33261); test: Inhibition of CYP2C19 in human liver microsomes at 10 uM after 10 mins in presence of NADPH by LC-MS/MS analysis relative to control; assay type: ADME
Histone deacetylase 9 = Histone deacetylase 9 (Homo sapiens, UniProt Q9UKV0); test: Inhibition of human HDAC9
[12] = Cytotoxicity against human THLE2 cells after 72 hrs by vialight cell proliferation assay; assay type: cell-based, THLE-2; conditions: read-out: LC50
Mus musculus [13] = test: Cognitive enhancing effect in Tg2576 mouse model of Alzheimer's disease assessed as long term associative memory improvement by measuring freezing after electric shock at 40 mg/kg, ip for 2 weeks measured at 24 hrs post electric shock (reference value: 54%); assay type: functional
[14] = Half life in mouse liver microsomes at 1 uM preincubated for 10 mins followed by NADPH addition measured up to 60 mins by LC-MS/MS analysis; assay type: ADME, microsome
CYP3A4 = CYP3A4 (Homo sapiens, UniProt P08684); test: Inhibition of CYP3A4 in human liver microsomes at 10 uM after 10 mins in presence of NADPH by LC-MS/MS analysis relative to control; assay type: ADME
[15] = Selectivity ratio of compound effect for inhibition of HDAC6 in human SH-SY5Y cells assessed as induction of tubulin K-40 acetylation level to compound effect for inhibition of class-1 HDAC in human SH-SY5Y cells assessed as induction of AcH3K9 level; assay type: functional
cells [16] = conditions: Homo sapiens, SH-SY5Y, 2 h, read-out: FC; remark: listed apart in the source
[17] = Cytotoxicity against Tg2576 mouse primary neurons after 72 hrs by ATP luminescence assay; assay type: cell-based, Neuron; conditions: read-out: LC50
Histone deacetylase 2 = Histone deacetylase 2 (Homo sapiens, UniProt Q92769); test: Inhibition of full length human recombinant C-terminal His-tagged HDAC2 expressed in baculovirus infected sf9 cells using fluorogenic HDAC substrate 3 after 30 mins by fluorescence assay
[18] = biological target: Histone deacetylase 3/Nuclear receptor corepressor 2 (HDAC3/NCoR2) (Homo sapiens, UniProt O15379); test: Inhibition of full length human recombinant C-terminal His-tagged HDAC3/N-terminal GST-tagged NCOR2 (95 to 489 residues) expressed in baculovirus infected sf9 cells using fluorogenic HDAC substrate 3 after 30 mins by fluorescence assay
Histone deacetylase 1 [19] = biological target: T1, Histone deacetylase 1; test: Inhibition of full length human recombinant C-terminal FLAG/His-tagged HDAC1 expressed in baculovirus infected sf9 cells using fluorogenic HDAC substrate 3 after 30 mins by fluorescence assay
Histone deacetylase 1 [20] = biological target: T1, Histone deacetylase 1; test: Inhibition of full length human recombinant C-terminal FLAG/His-tagged HDAC1 expressed in baculovirus infected sf9 cells using fluorogenic HDAC substrate 3 after 4 hrs fluorescence assay
[21] = biological target: Cone cGMP-specific 3',5'-cyclic phosphodiesterase subunit alpha' (Homo sapiens, UniProt P51160); test: Inhibition of PDE6C (unknown origin) using FAM-cGMP as substrate by fluorescence assay
Chain of Cone cGMP-specific 3',5'-cyclic phosphodiesterase subunit alpha' (P51160 whole entry): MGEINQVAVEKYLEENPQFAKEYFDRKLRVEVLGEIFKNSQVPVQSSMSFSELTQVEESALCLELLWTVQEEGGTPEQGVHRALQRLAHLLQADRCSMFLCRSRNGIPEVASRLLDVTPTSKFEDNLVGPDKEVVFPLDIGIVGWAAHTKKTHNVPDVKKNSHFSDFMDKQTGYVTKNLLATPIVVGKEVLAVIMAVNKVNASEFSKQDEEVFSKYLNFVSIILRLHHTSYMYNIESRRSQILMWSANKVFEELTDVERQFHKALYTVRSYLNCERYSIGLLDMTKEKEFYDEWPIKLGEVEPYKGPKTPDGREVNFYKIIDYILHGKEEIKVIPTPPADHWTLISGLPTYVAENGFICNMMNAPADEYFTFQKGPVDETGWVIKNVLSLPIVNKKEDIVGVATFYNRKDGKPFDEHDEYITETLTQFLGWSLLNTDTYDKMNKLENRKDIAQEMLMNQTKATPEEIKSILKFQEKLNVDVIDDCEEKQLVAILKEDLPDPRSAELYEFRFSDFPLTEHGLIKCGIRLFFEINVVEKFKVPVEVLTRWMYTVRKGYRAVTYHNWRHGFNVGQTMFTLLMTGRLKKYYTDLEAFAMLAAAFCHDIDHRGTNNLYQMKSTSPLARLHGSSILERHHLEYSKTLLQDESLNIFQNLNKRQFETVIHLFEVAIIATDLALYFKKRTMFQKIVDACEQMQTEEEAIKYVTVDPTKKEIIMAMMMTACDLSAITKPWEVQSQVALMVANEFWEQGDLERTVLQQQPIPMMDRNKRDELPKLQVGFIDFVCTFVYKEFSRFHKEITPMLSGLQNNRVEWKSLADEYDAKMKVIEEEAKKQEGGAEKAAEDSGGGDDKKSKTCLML

[22] = Effective permeability of the compound at 50 uM after 18 hrs by UV spectroscopy based PAMPA; assay type: ADME; conditions: read-out: Peff

Chain of Histone deacetylase 4 (P56524 whole entry): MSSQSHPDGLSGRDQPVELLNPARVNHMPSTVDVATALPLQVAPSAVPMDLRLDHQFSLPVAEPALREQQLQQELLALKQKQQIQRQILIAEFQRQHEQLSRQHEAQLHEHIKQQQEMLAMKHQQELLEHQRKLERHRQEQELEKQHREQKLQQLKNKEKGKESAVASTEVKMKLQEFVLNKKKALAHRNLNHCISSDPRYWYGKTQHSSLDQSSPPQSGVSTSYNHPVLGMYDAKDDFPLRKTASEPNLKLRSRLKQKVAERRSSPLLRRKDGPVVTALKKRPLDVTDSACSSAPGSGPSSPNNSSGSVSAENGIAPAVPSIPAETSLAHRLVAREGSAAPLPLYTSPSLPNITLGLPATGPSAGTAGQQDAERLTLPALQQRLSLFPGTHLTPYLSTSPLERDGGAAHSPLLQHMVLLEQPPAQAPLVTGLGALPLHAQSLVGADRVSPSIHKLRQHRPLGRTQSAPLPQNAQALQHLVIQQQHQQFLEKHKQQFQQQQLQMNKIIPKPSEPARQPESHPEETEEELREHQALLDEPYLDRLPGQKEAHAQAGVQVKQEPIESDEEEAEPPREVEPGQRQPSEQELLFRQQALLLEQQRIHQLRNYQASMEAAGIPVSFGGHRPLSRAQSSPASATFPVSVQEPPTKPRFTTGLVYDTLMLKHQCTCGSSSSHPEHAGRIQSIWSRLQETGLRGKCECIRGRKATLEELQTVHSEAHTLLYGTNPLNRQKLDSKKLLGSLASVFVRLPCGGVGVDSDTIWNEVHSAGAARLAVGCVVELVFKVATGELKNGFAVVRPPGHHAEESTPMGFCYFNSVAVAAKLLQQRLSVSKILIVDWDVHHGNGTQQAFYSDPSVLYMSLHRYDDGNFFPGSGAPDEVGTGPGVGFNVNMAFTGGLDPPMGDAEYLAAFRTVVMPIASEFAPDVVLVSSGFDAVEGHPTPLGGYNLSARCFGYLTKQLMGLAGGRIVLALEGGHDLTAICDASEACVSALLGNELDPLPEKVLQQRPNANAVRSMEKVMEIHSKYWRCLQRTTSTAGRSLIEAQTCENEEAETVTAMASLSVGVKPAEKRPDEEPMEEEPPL

With `CCCc1nn(C)c2c(=O)[nH]c(-c3cc(Cc4ccc(C(=O)NO)s4)ccc3OCC)nc12` the IC50 (Histone deacetylase 4) was greater than 10 µM, the half-life at 1 µM [1] was 32.7 min and the Activity (Mus musculus [2]) was 48%. It also gave an inhibition [3] of 55%, a residence time (Histone deacetylase 1 [4]) of 15.5 min and a fold induction at 0.1 µM (cells [5]) of 1.8. The IC50 [6] was 0.011 µM, the IC50 [7] was greater than 10 µM and the IC50 (Histone deacetylase 5) was greater than 10 µM. For the same compound, the IC50 (Histone deacetylase 8) was greater than 10 µM, the inhibition at 10 min, 10 µM (CYP2C9) was less than 50% and the fold induction at 0.5 µM (cells [8]) was 8.2. For the same compound, the inhibition [9] was 30%, the “inhibition (INH)” value [10] was “Active” and the IC50 [11] was 3.2 µM. It also gave an inhibition at 10 min, 10 µM (CYP2D6) of less than 50%, an inhibition at 10 min, 10 µM (CYP2C19) of less than 50% and an IC50 (Histone deacetylase 9) greater than 10 µM. It also gave a CC50 at 72 h [12] of 6.81 µM, an Activity (Mus musculus [13]) of 68% and a half-life at 1 µM [14] of 5.2 min. It also gave an inhibition at 10 min, 10 µM (CYP3A4) of 23.4%, a Selectivity ratio [15] greater than 5 and a fold induction at 1 µM (cells [16]) of 12.1. It also gave a CC50 at 72 h [17] of 46.3 µM, an IC50 (Histone deacetylase 2) of 3.72 µM and an IC50 [18] of 2.09 µM. It also gave an IC50 (Histone deacetylase 1 [19]) of 0.345 µM, an IC50 (Histone deacetylase 1 [20]) of 0.841 µM and an IC50 [21] of 0.0014 µM. It also gave a Papp at 18 h, 50 µM [22] of 2.91 ×10⁻⁶ cm/s.

Reference: ChEMBL document CHEMBL4196089, “Design, synthesis, biological evaluation and in vivo testing of dual phosphodiesterase 5 (PDE5) and histone deacetylase 6 (HDAC6)-selective inhibitors for the treatment of Alzheimer's disease” (Eur J Med Chem, 2018)
